# According to patent CN102775413A, “氨基取代吴茱萸次碱类似物及其合成方法与在制备抗肥胖症药物中的应用” (Sun Yat Sen University, priority 2012, dated 2012):
# Entries after “also recorded” stand apart in the source; their conditions may differ.
# How the values were obtained:
# [1] = Precipitation from culture medium, microscopy, 15 μM (Example 10, Fig. 4); format: physicochemical; conditions: incubated with 3T3-L1 cells 6 days
# [2] = system: 3T3-L1 mouse adipocytes (3T3-L1小鼠脂肪细胞); assay: Triglyceride content of differentiating 3T3-L1 adipocytes (triglyceride assay kit); format: cell-based
# cells (细胞) = assay: Reduction of fat accumulation (general statement, test not specified); format: cell-based; conditions: inventors' finding
# [3] = Precipitation from culture medium, microscopy, 20 μM (Example 11, Fig. 6); format: physicochemical; conditions: 24 h incubation with cells
# [4] = system: FAO rat hepatocytes (FAO大鼠肝细胞); assay: High-fructose-induced fat accumulation in FAO hepatocytes (triglyceride kit and BCA protein kit); format: cell-based; conditions: 24 h, Fig. 5
compound,measurement,setting,value
"O=c1c2ccccc2nc2n1CCc1c-2[nH]c2ccccc12 [R1, 吴茱萸次碱]",precipitation from culture medium,[1],从培养基中析出来
same,effect on triglyceride content of 3T3-L1 cells vs DMSO control (DM),"[2]; 1 μM, Fig. 1, significance vs DM",显著性地降低
same,inhibition at 3 µM,"[2]; Mus musculus, 144 h, 3T3-L1 cells, 3 μM, Day 6, vs DMSO control, mean of three independent experiments, Fig. 2, read-out: reduction of triglyceride content",34%
same,concentration dependence of reduction of fat accumulation in 3T3-L1 cells,"[2]; R1 0, 0.3, 1, 3, 10, 15 μM, R17 and R18 0, 0.03, 0.1, 0.3, 1, 3 μM, Fig. 2",浓度依赖性地减少
same,reduction of fat accumulation in cells,cells (细胞),能减少细胞的脂肪蓄积
same,precipitation from culture medium,[3],会从培养基中析出; also recorded: 从培养基中析出来
same,inhibition at 10 µM,"[4]; Hepatocyte, FAO rat hepatocytes, 10 μM, 25 mM fructose, triglyceride per mg protein vs control, mean of three independent experiments, read-out: reduction of high-fructose-induced fat accumulation",72%
same,concentration dependence of inhibition of high-fructose-induced fat accumulation in FAO rat hepatocytes,"[4]; R1 0, 0.3, 10, 20 μM, R17 0, 0.1, 0.3, 10 μM",浓度依赖性地抑制; also recorded: 浓度依赖性地减少
